Experimental data published in patent publication US10633419B2, “Immunomodulators” (BRISTOL-MYERS SQUIBB COMPANY, priority 2014, dated 2020).
Starred links: 1 amine or outer side, 2 acyl side, 3 side chain; linkers in the order of their positions; H or OH if unused. Positions of bridges follow the written chain, without caps; N, C: chain ends. Non-standard residues stand in square brackets, D forms with d. Residues, ends and D or L forms follow the SMILES beside them. *: point of attachment. εLys(α-Octadecanedioyl) = O=C(O)CCCCCCCCCCCCCCCCC(=O)N[C@@H](CCCCN*)C(=O)O; X12 = O=C(O)CCCCCCCCCCCCCCCCCCC(=O)N[C@@H](CCC(=O)NCCCOCCOCCOCCCN*)C(=O)O; X15 = O=C(O)CCCCCCCCCCNC(=O)CCCCCCCCCCNC(=O)CCC(=O)NCCCOCCOCCOCCCN*; Trp(1-CH2COOH) = N[C@@H](Cc1cn(CC(=O)O)c2ccccc12)C(=O)O; X9 = O=C(O)CCCCCCCCCCCCCCCCC(=O)N[C@@H](CCN*)C(=O)O; d(cisHyp) = O=C(O)[C@H]1C[C@@H](O)CN1; βAsp = O=C(O)[C@H](CC(=O)[*:2])N[*:1]; Palmitoyl = CCCCCCCCCCCCCCCC(=O)*; Hyp = O=C(O)[C@@H]1C[C@@H](O)CN1; NMeNle = CCCC[C@H](NC)C(=O)O; Pip = O=C(O)[C@@H]1CCCCN1; NMeA = CN[C@@H](C)C(=O)O; Aun = NCCCCCCCCCCC(=O)O; Dab = NCC[C@H](N)C(=O)O; Dap = NC[C@H](N)C(=O)O; PEG1 = NCCOCCC(=O)O

What follows are molecules tested against T1, PD-L1 (Homo sapiens, UniProt Q9NZQ7) (assay: PD-1/PD-L1 Homogenous Time-Resolved Fluorescence (HTRF) binding assay (PD-1-Ig/PD-L1-His)). Settings: inhibition of PD-1-Ig binding to PD-L1-TVMV-His; value given as range class; read-out: HTRF IC50.
T1 construct: hPDL1(19-239)-TVMV-His; made in house; host or cells: HEK293T
T1 sequence (Q9NZQ7 with tags, fused parts or gaps): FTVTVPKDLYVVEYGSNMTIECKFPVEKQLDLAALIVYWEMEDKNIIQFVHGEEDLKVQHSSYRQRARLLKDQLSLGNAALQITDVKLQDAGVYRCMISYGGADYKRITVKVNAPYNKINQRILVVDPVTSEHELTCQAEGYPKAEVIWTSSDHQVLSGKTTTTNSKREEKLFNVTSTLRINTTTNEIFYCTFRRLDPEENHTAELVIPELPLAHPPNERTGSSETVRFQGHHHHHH
Summary of the method: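 HTRF competition in dPBS with 0.1% BSA and 0.05% Tween-20: 20 nM PD-1-Ig added after 15 min compound pre-incubation with 10 nM PD-L1-His, then another 15 min. Signal (665/620 nm) after 30 min with APC anti-His (20 nM) and Eu anti-Ig (1 nM).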
With `CCCC[C@H]1C(=O)N(C)[C@@H](CCCC)C(=O)N[C@@H](CC(C)C)C(=O)N[C@H](C(=O)NCC(=O)NCCCC[C@H](NC(=O)CCCCCCCCCCCCCCCCC(=O)O)C(=O)O)CSCC(=O)N[C@@H](Cc2ccc(O)cc2)C(=O)N(C)[C@@H](C)C(=O)N[C@@H](CC(N)=O)C(=O)N2CCC[C@H]2C(=O)N[C@@H](CN)C(=O)N[C@@H](CC(C)C)C(=O)N2C[C@H](O)C[C@@H]2C(=O)N[C@@H](Cc2c[nH]c3ccccc23)C(=O)N[C@@H](CCN)C(=O)N[C@@H](Cc2cn(CC(=O)O)c3ccccc23)C(=O)N1C` [Example 11141] ({CH2CO}-Y[NMeA]NP[Dap]L[d(cisHyp)]W[Dab][Trp(1-CH2COOH)][NMeNle][NMeNle]LCG-{εLys(α-Octadecanedioyl)}; thioether N-14) the IC50 was 10 to 99 nM.
`CCCC[C@H]1C(=O)N(C)[C@@H](CCCC)C(=O)N[C@@H](CC(C)C)C(=O)N[C@H](C(=O)NCCCOCCOCCOCCCNC(=O)CCC(=O)NCCCCCCCCCCC(=O)NCCCCCCCCCCC(=O)O)CSCC(=O)N[C@@H](Cc2ccc(O)cc2)C(=O)N(C)[C@@H](C)C(=O)N[C@@H](CC(N)=O)C(=O)N2CCC[C@H]2C(=O)N[C@@H](CN)C(=O)N[C@@H](CCC(N)=O)C(=O)N2C[C@H](O)C[C@H]2C(=O)N[C@@H](Cc2c[nH]c3ccccc23)C(=O)N[C@@H](CO)C(=O)N[C@@H](Cc2cn(CC(=O)O)c3ccccc23)C(=O)N1C` [Example 11087] ({CH2CO}-Y[NMeA]NP[Dap]Q[Hyp]WS[Trp(1-CH2COOH)][NMeNle][NMeNle]LC-X15; thioether N-14) gave an IC50 of 10 to 99 nM.
Work on `CCCC[C@H]1C(=O)N(C)[C@@H](CCCC)C(=O)N[C@@H](CC(C)C)C(=O)N[C@H](C(=O)NCC(=O)N[C@@H](CCC(=O)O)C(=O)NCCCOCCOCCOCCCNC(=O)CC[C@H](NC(=O)CCCCCCCCCCCCCCCCCCC(=O)O)C(=O)O)CSCC(=O)N[C@@H](Cc2ccc(O)cc2)C(=O)N(C)[C@@H](C)C(=O)N[C@@H](CC(N)=O)C(=O)N2CCC[C@H]2C(=O)N[C@@H](CN)C(=O)N[C@@H](CC(C)C)C(=O)N2C[C@H](O)C[C@H]2C(=O)N[C@@H](Cc2c[nH]c3ccccc23)C(=O)N[C@@H](CCN)C(=O)N[C@@H](Cc2cn(CC(=O)O)c3ccccc23)C(=O)N1C` [Example 11226] ({CH2CO}-Y[NMeA]NP[Dap]L[Hyp]W[Dab][Trp(1-CH2COOH)][NMeNle][NMeNle]LCGE-X12; thioether N-14) yielded an IC50 of 0.3 to 9.9 nM.
Molecule `CCCC[C@H]1C(=O)N(C)[C@@H](CCCC)C(=O)N[C@@H](CCCNC(=N)N)C(=O)N[C@H](C(=O)NCC(=O)NCC(=O)NCC(=O)NCCCCCCCCCCC(=O)O)CSCC(=O)N[C@@H](Cc2ccc(O)cc2)C(=O)N(C)[C@@H](C)C(=O)N[C@@H](CC(=O)O)C(=O)N2CCC[C@H]2C(=O)N[C@@H](Cc2cnc[nH]2)C(=O)N[C@@H](CC(C)C)C(=O)N2C[C@H](O)C[C@H]2C(=O)N[C@@H](Cc2c[nH]c3ccccc23)C(=O)N[C@@H](CO)C(=O)N[C@@H](Cc2c[nH]c3ccccc23)C(=O)N1C` [Example 11070] ({CH2CO}-Y[NMeA]DPHL[Hyp]WSW[NMeNle][NMeNle]RCGGG[Aun]-OH; thioether N-14) has an IC50 of 0.3 to 9.9 nM.
`CCCC[C@H]1C(=O)N(C)[C@@H](CCCC)C(=O)N[C@@H](CCC(=O)O)C(=O)N[C@H](C(=O)NCC(=O)N[C@@H](Cc2cn(CC[C@H](NC(=O)CCCCCCCCCCCCCCC(=O)O)C(=O)O)nn2)C(N)=O)CSCC(=O)N[C@@H](Cc2ccc(O)cc2)C(=O)N(C)[C@@H](C)C(=O)N[C@@H](CC(N)=O)C(=O)N2CCC[C@H]2C(=O)N[C@@H](CN)C(=O)N[C@@H](CC(C)C)C(=O)N2C[C@H](O)C[C@H]2C(=O)N[C@@H](Cc2c[nH]c3ccccc23)C(=O)N[C@@H](CO)C(=O)N[C@@H](Cc2cn(CC(=O)O)c3ccccc23)C(=O)N1C` [Example 14070] was tested, and the IC50 was 10 to 99 nM.
For `CCCC[C@H]1C(=O)N(C)[C@@H](CCCC)C(=O)N[C@@H](CC(C)C)C(=O)N[C@H](C(=O)NCC(=O)N[C@@H](CC(=O)NCCOCCC(=O)NCC[C@H](NC(=O)CCCCCCCCCCCCCCCCC(=O)O)C(=O)O)C(=O)O)CSCC(=O)N[C@@H](Cc2ccc(O)cc2)C(=O)N2CCCC[C@H]2C(=O)N[C@@H](CC(N)=O)C(=O)N2CCC[C@H]2C(=O)N[C@@H](CN)C(=O)N[C@@H](CC(C)C)C(=O)N2C[C@H](O)C[C@H]2C(=O)N[C@@H](Cc2c[nH]c3ccccc23)C(=O)N[C@@H](CCN)C(=O)N[C@@H](Cc2cn(CC(=O)O)c3ccccc23)C(=O)N1C` [Example 13161] ({CH2CO}-Y[Pip]NP[Dap]L[Hyp]W[Dab][Trp(1-CH2COOH)][NMeNle][NMeNle]LCG[βAsp][PEG1]-X9; thioether N-14), the IC50 was 0.3 to 9.9 nM.
Molecule `CCCCCCCCCCCCCCCC(=O)NCCCC[C@H](NC(=O)CNC(=O)[C@H](CO)NC(=O)CNC(=O)[C@H](CO)NC(=O)CNC(=O)[C@@H]1CSCC(=O)N[C@@H](Cc2ccc(O)cc2)C(=O)N(C)[C@@H](C)C(=O)N[C@@H](CC(N)=O)C(=O)N2CCC[C@H]2C(=O)N[C@@H](CCN)C(=O)N[C@@H](CC(C)C)C(=O)N2C[C@H](O)C[C@H]2C(=O)N[C@@H](Cc2c[nH]c3ccccc23)C(=O)N[C@@H](CO)C(=O)N[C@@H](Cc2c[nH]c3ccccc23)C(=O)N(C)[C@@H](CCCC)C(=O)N(C)[C@@H](CCCC)C(=O)N[C@@H](CCCNC(=N)N)C(=O)N1)C(N)=O` [Example 11021] ({CH2CO}-Y[NMeA]NP[Dab]L[Hyp]WSW[NMeNle][NMeNle]RCGSGSGK(Palmitoyl)-NH2; thioether N-14) has an IC50 of 100 to 1600 nM.
